Measured values as given in US5077195A, “Polypeptides complementary to peptides or proteins having an amino acid sequence or nucleotide coding sequence at least partially known and methods of design therefor” (Board of Reagents, The University of Texas System, priority 1986, dated 1991).
“And” between values parts separate entries of the source, which are not always exact repeats. Equal entries are not always repeated. Where no end group is shown, it is not given here.

Assays:
I^125 ACTH (1-39) = molecular target: T1, I^125 ACTH (1-39) (Homo sapiens, UniProt P01189); assay: ^125 I-ACTH binding to peptide-coated microtiter wells
T1 construct: I^125 ACTH (1-39) (New England Nuclear Boston, MA); purchased New England Nuclear (Boston, MA)
T1 sequence (P01189 138-176 limits assumed): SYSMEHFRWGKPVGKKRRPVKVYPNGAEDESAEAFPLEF
Description: Utilizing techniques described in Example 1B, polyvinyl microtiter wells were coated with 3'-5' HTCA from a 1 mM solution thereof or with BSA.
The BSA and 3'-5' HTCA coated wells were washed and then treated with one of three solutions of I^125 ACTH (1-39) (New England Nuclear Boston, MA) having different concentrations. After a forty five minute incubation period the solution was removed and the microtiter wells extensively washed. The microtiter wells were separated and assayed for iodine^125content in a Beckman Gamma 5500 gamma counter. Bound ^125 I-ACTH was measured in duplicate at three concentrations in the absence and presence of excess unlabelled ACTH.
Utilizing the cRNA sequence and HTCA sequence shown in Table 8 of Example 1A, a series of peptides having a carboxy-terminal portion of the HTCA amino acid were synthesized. A pentamer (5-mer) contained the amino acid sequence: H2 N-Phe-His-Gly-Val-Arg-COOH. A decamer (10-mer) contained the amino acid sequence: H2 N-[…]COOH. A twenty membered peptide (20-mer) contained the amino acids sequence: H2 N-[…] Val-Arg-COOH. Each of thes peptides was used to coat microtiter wells and the coated wells tested for the ability to bind ^125 I-ACTH as described in Example 1C.
A 24-mer HTCA variant (R-HTCA) with reversed amino acid sequence directionality (amino-terminal and carboxy-terminal ends being reversed) was synthesized and had the following sequence: H2 N-[…] Arg-His-Leu-His-Val-Gly-COOH. The well-coating and ^125 I-ACTH binding procedures were performed as described in Example 1-C and the resultant data shown in Table 11.

HTCA = assay: ELISA binding of immunoglobulins to HTCA-coated plates; conditions: Plates coated with HTCA
Description: (§1) Two peptides complementary to ACTH, described in Examples 1B and 1C as HTCA and 3'-5' HTCA, were each coupled to Keyhole Limpet Hemocyanin (KLH) with glutaraldeyde (1 mg peptide, 1 mg KLH, 30 mM glutaraldehyde for 30 minutes at room temperature followed by dialysis) to prepare antigens for rabbit immunization. Two rabbits were injected separately with 250 ug of peptide-KLH antigens weekly for four weeks. Each rabbit was bled biweekly for three weeks following the last injection. Antibodies representing the total immunoglobulin from serum of each rabbit was purified by precipitation from serum with 50% saturated ammonium sulfate at 4° C. followed by standard ion exchange chromatography on a DEAE column.
To examine the binding of each of the immunoglobulins to each of the peptides, enzyme-linked immunosorbant assays were performed. In these assays, one of the complementary peptides was coated onto polycarbonate plates in a carbonate coating buffer at pH 9.0 overnight. Unbound peptide was removed by washing three times with phosphate buffered saline (PBS)-TWEEN 20. Various amounts of immunoglobulins were added to peptide-coated wells in PBS-TWEEN 20 solution and incubated for one hour. Unbound immunoglobulin was removed by washing with PBS-TWEEN 20. To each well was added a 1:300 dilution of goat anti-rabbit IgG coupled to alkaline phosphatase enzyme. After one hour the wells were washed with PBS-TWEEN 20 to remove unbound secondary antibodies. The amount of remaining secondary antibody was determined by reacting p-nitrophenyl phosphate with the remaining aklaline phosphatase enzyme for 15 minutes, stopping the reaction with 3M NaOH, and measuring nitrophenol produced spectrophotometrically at 490 nm.

3'-5' HTCA = assay: ELISA binding of immunoglobulins to 3'-5' HTCA-coated plates; conditions: Plates coated with 3'-5' HTCA; antibody 0.11 mg/ml
Description: as §1
To examine the binding of each of the immunoglobulins to each of the peptides, enzyme-linked immunosorbant assays were performed. In these assays, one of the complementary peptides was coated onto polycarbonate plates in a carbonate coating buffer at pH 9.0 overnight. Unbound peptide was removed by washing three times with phosphate buffered saline (PBS)-TWEEN 20. […] The amount of remaining secondary antibody was determined by reacting p-nitrophenyl phosphate with the remaining aklaline phosphatase enzyme for 15 minutes, stopping the reaction with 3M NaOH, and measuring nitrophenol produced spectrophotometrically at 490 nm.

^125 I-ACTH = molecular target: T2, ^125 I-ACTH (Homo sapiens, UniProt P01189); assay: Solid-phase binding of ^125 I-ACTH to 5'-3' and 3'-5' complementary peptides
T2 construct: ACTH plates+immunized rabbit immunoglobulin
T2 sequence (P01189 138-176 limits assumed): T1 sequence (P01189 138-176 limits assumed)
Description: A solid-phase binding assay was used to determine the ability of both the 5'-to-3' and the 3'-to-5'-complementary-RNA-strand peptides (see Examples 1A and 1C) to bind ^125 I-ACTH. The peptides were diluted in phosphate-buffered saline (140 mM-NaCl/3 mM-KCl/0.1% NaN3 /20 mM-phosphate buffer, pH 7.4) to 2 mg/ml, and 0.2 ml/well was placed into poly(vinyl chloride) micro-titre plates (Becton and Dickinson, Oxnard, CA, U.S.A.). After 18 h at 4° C., unbound peptide was removed by washing three times with phosphate-buffered saline containing 0.1% bovine serum albumin (Sigma Chemical Co., St. Louis, MO, U.S.A.). ^125 I-ACTH was diluted to various concentrations with phosphate-buffered saline containing 0.1% bovine serum albumin and incubated in peptide-coated wells for 60 minutes at 4° C. […] After incubation, unbound radiolabel was washed out with phosphate-buffered saline containing 0.1% bovine serum albumin, and the radioactivity of individual wells was measured by gamma-radiation counting. The amount of specifically bound radioactivity was determined by blocking ^125 I-ACTH binding with unlabelled ACTH. Additional controls included coating wells with insulin or bovine serum albumin (2 mg/ml) before the addition of the ^125 I-ACTH.

angiotensin II receptors = assay: Binding of [^125 I] angiotensin II to isolated hepatic receptor; parameters: species or system Rabbit; conditions: concentration that inhibits binding of radiolabelled angiotensin II by 50%; 0.25 nM label; 60 minutes at 20° C.
Description: Rabbit livers were homogenized, and were centifuged in order to isolate particles sedimenting between 1,000 and 100,000 xg. Binding activity was solublized with 1% digitonin, followed by ammonium sulfate fractionation between 49 and 65% satuation followed by DEAE- cellulose chromatography at pH 7.5 using a linear gradient between 0.0 and 0.3M KCl.
The reaction is initiated by addition of the receptor and samples are incubated for 60 minutes at 20° C. The reaction is terminated with 1 ml of cold 0.5% charcoal/0.05% Dextran in 100 mM Tris-HCl, pH 7.5.
The complete system under these conditions regularly yields about 10,000 cpm of bound radioactivity.

| Substance | binding of ^125 I-ACTH to coated wells (in words) (I^125 ACTH (1-39)) | Bound CPM - ^125 I-ACTH (I^125 ACTH (1-39); 1:3 dilution ^125 I-ACTH) | Bound CPM - ^125 I-ACTH (I^125 ACTH (1-39); 1:3 dilution ^125 I-ACTH, + Excess ACTH) | Bound CPM - ^125 I-ACTH (I^125 ACTH (1-39); 1:9 dilution ^125 I-ACTH, + Excess ACTH) | Bound CPM - ^125 I-ACTH (I^125 ACTH (1-39); conc ^125 I-ACTH) | Bound CPM - ^125 I-ACTH (I^125 ACTH (1-39); conc ^125 I-ACTH, + Excess ACTH) | Absorbance at 490 nm (HTCA; antibody 0.04 mg/ml) | Absorbance at 490 nm (HTCA; antibody 0.11 mg/ml) | Absorbance at 490 nm (HTCA; antibody 0.3 mg/ml) | Absorbance at 490 nm (HTCA; antibody added 0.012 mg/ml) | Absorbance at 490 nm (3'-5' HTCA) | effectiveness in binding ACTH (in words) (^125 I-ACTH) | ID50 (angiotensin II receptors) |
| --- | --- | --- | --- | --- | --- | --- | --- | --- | --- | --- | --- | --- | --- |
| RMRYLVKATPFGHPFFAAGHFHMG [3'-5' HTCA] | binds to coated 3'-5' HTCA | 601 CPM and 590 CPM | 287 CPM and 299 CPM | 191 CPM and 183 CPM | 1819 CPM and 1716 CPM | 616 CPM and 615 CPM | 0.24 ± 0.08 | 0.37 ± 0.09 | 0.91 ± 0.11 | 0.08 ± 0.04 | 0.89 ± 0.23 | equally effective in binding ACTH | – |
| Ac-KGVYIHAL-NH2 [CCA-AII (Ac, Am), Ac--LYS--GLY--VAL--TYR--ILE--HIS--ALA--LEU--Am] | – | – | – | – | – | – | – | – | – | – | – | – | 3,100 nM |
